Data as given in patent US20020137655A1, “Use of haloperoxidase, peroxide and carboxylic acid” (Novozymes A/S, priority 2000, published 2002).

System: Escherichia coli (DSM 1576)
Experiment: Antibacterial activity of haloperoxidase, hydrogen peroxide and a buffer compound against Escherichia coli cells (conductance measurement, Malthus)
Type: cell-based
Conditions: for Log CFU/ml (reduction in number of living bacterial cells): buffer 50 mM, 40° C., 20 minutes, approx. 10^6 CFU/ml; for bactericidal activity: carboxylic acid as buffer with haloperoxidase and hydrogen peroxide (Table 1), log CFU/ml reduction of more than 6 units corresponds to 100%
Procedure: Antimicrobial activity may be measured in terms of the number of log reductions. The term “log reduction” is defined as a logarithmic reduction of the number of living cells, e.g. 1 log reduction corresponds to a reduction in living cell number of Escherichia coli DSM1576 or Enterococcus faecalis DSM2570 from Y×10^X CFU/M (CFU: […] The number of living bacteria are to be determined as the number of E. coli or E. faecalis, respectively, which can grow on Tryptone Soya Agar plates at 30° C. The antibacterial activity of a system composed of a haloperoxidase and hydrogen peroxide were tested in a variety of buffers (including both carboxylic acids and other buffer compounds) and pH against Escherichia coli (DSM 1576). The E. coli cells were grown in Brain Heart Infusion broth (BHI) until stationary growth phase (30° C., 20 hours). […] Subsequently the solution was incubated in a 96-well MicroWell plate (Nunc A/S, Denmark) at 40° C. in 20 minutes. […] The detection times measured by the Malthus instrument were converted to CFU/ml by a calibration curve.

[1] = pH 5, rCvP 0.5 mg/L, H2O2 0.5 mM
[2] = pH 7, rCvP 0.1 mg/L, H2O2 0.25 mM
[3] = pH 6, rCvP 0.5 mg/L, H2O2 0.5 mM

O=C(O)CC(O)(CC(=O)O)C(=O)O [Citric acid]
Log CFU/ml (reduction in number of living bacterial cells) [1]: 6.4 Log CFU/ml
bactericidal activity: 100%

O=P([O-])(O)O.[K+] [KH2PO4]
Log CFU/ml (reduction in number of living bacterial cells) [2]: 0.3 Log CFU/ml
Log CFU/ml (reduction in number of living bacterial cells) (pH 8, rCvP 1 mg/L, H2O2 1 mM): 0.4 Log CFU/ml

CC(=O)O [Acetic acid]
Log CFU/ml (reduction in number of living bacterial cells) [1]: 6.0 Log CFU/ml
bactericidal activity: 100%

CC(C)(CC(=O)O)CC(=O)O [Dimethylglutaric acid (DMG), Dimethylglutaric acid]
Log CFU/ml (reduction in number of living bacterial cells) [3]: 6.7 Log CFU/ml
Log CFU/ml (reduction in number of living bacterial cells) [2]: 7.3 Log CFU/ml
bactericidal activity: 100%

Tris(hydroxymethyl)amino-methane [Tris(hydroxymethyl)amino-methane (TRIS)]
Log CFU/ml (reduction in number of living bacterial cells) [2]: 0.3 Log CFU/ml
Log CFU/ml (reduction in number of living bacterial cells) (pH 8, rCvP 1 mg/L, H2O2 1 mM): 0.5 Log CFU/ml

O=S(=O)(O)CCN1CCOCC1 [2-(N-morpholino) ethanesulfonic acid]
Log CFU/ml (reduction in number of living bacterial cells) [3]: 0.6 Log CFU/ml

O=S(=O)(O)CCN1CCN(CCO)CC1 [HEPES]
Log CFU/ml (reduction in number of living bacterial cells) [2]: 0.7 Log CFU/ml
Log CFU/ml (reduction in number of living bacterial cells) (pH 8, rCvP 1 mg/L, H2O2 1 mM): 0.6 Log CFU/ml
